Patent US20070249545A1, “DIHYDROFOLATE REDUCTASE INHIBITION BY EPIGALLOCATECHIN GALLATE COMPOUNDS” (priority 2004, published 2007)

Tests used:
[1] = target: S. maltophilia DHFR (Stenotrophomonas maltophilia, UniProt B2FPG1); type: biochemical; conditions: S. maltophilia DHFR
Description: For the DHFR extraction, S. maltophilia strain number 1, was inoculated onto fresh agar 24 h before using. Then, liquid medium was inoculated with the strain and these broth cultures were incubated at 37° C. and shaken at 100 cycles per min. Solid medium was MacConkey agar (Oxoid Ltd., Basingstoke, England). Liquid medium was Brilliant Green Bile 2% broth (Oxoid). Bacteria were grown to mid-log phase, harvested by centrifugation (1,600 rpm 30 min) and washed twice in 50 mM phosphate buffer (pH 7.0) followed each time by a new centrifugation (1,600 rpm 5 min). Cell lysis, centrifugation, and dialysis were carried out between 4 and 8° C. Fast protein liquid chromatography (FPLC) purification steps were performed at room temperature. […] After centrifugation at 36,000 rpm for 30 min to remove cell debris, the supernatant was filtered. This supernatant was brought to 40% saturation with solid ammonium sulfate under continuous stirring. After 1 h the solution was centrifuged at 35,000 rpm for 30 min and the pellet discarded. Additional ammonium sulfate was added to the clear supernatant to give 90% saturation and stirred for 1 h. After centrifugation, the precipitates were suspended in 2 ml of buffer B (10 mM potassium phosphate buffer, pH 7.4, 2 mM β-mercaptoethanol). Concentrated enzyme (2 ml samples) was loaded onto a […] gel-filtration column (Sephacryl S-75 16/60 Hi-Prep, Amersham Pharmacia Biotech Europe GmbH, Barcelona, Spain), equilibrated with buffer B and eluted at 0.5 ml/min. The active fractions were concentrated and stored at −80° C. until used.
Initial velocity inhibition experiments were carried out for the inhibition studies of S. maltophilia with TMP and EGCG. One substrate (NADPH) was held constant at saturating concentration while the other substrate (DHF) and the inhibitor (TMP or EGCG) were varied. To prevent the oxidation of EGCG the reaction mixture contained 1 mM N-acetylcysteine (Sigma). For MTX inhibition the slow development of […] inhibition was determined by continuously monitoring the disappearance of NADPH and DHF after initiation of the reaction by the addition of DHFR. Reaction mixtures contained buffer, NADPH (100 μM), DHF (20 μM), and various concentrations of MTX. The extent of recovery of enzymatic activity following inhibition induced by preincubation with DHFR inhibitors was determined as follows. DHFR was preincubated for 30 min at 25° C. in the buffer mixture containing MTX, TMP or EGCG. An aliquot of the incubation mixture was then diluted 500-fold into a reaction mixture containing buffer mixture, NADPH (100 μM), and DHF (20 μM). Recovery of enzyme activity was followed by continuous monitoring at 340 nm.
Provided that the concentration of free inhibitor is not substantially altered by the formation of an enzyme-NADPH-inhibitor complex, the progress curve for the inhibition in the presence of saturating NADPH can be described by Eqn. 1 (as above): P=vst+(v0−vs)(1−exp(−kobst))/kobs • where vs, v0 and kobs represent the steady-state velocity, initial velocity and apparent first-order rate constant, respectively. The apparent first-order rate constant is related to the inhibitor concentration by Eqn. 2, where Ki denotes the dissociation constants for the initial binding of MTX to the enzyme-NADPH complex. [formula]

[2] = test system: L1210 cells; test: EGCG cytotoxicity / growth of L1210 cells; type: cell-based, mouse
Description: L1210 cells were plated at a density of 10,000 cells/ml in 96-well plates with a “standard folate” RPMI 1640 medium supplemented with 10% FCS. Reversion experiments were carried out in an HT medium and/or by adding 50 μM ascorbic acid (AA). Cell injury was evaluated by a calorimetric assay for mitochondrial function using the MTT test.^29
The effect of different EGCG concentrations on L1210 cell growth after 29 h of treatment at two different folic acid concentrations was determined. The cells were previously adapted over a period of 2-3 days to grow in folate-free RPMI 1640 medium supplemented with 10% dialyzed FCS and 2 mM glutamine. This medium is subsequently referred to as LF (low folate). For the cytotoxicity assay, the cells were grown in LF media supplemented with folic acid (3 μM or 300 nM). Treatments were carried out in triplicate, and each experiment performed at least twice. Cell growth was determined by two different methods, Coulter counter Z2 and hemocytometer (FIG. 7). IC50 values were determined at each folic acid concentration added to the medium.
The growth-inhibitory effects of 10 μM EGCG at various folic acid concentrations were determined at two different time intervals. L1210 cells were cultured in a LF medium supplemented with the corresponding folic acid concentration. The data were obtained by using a Coulter counter and hemocytometer and expressed assuming a zero percentage of growth inhibition for untreated control (FIG. 8). Cells were maintained in the corresponding medium with 100 μg/ml of penicillin and streptomycin at 37° C. in a humid 7.5% CO2, […] environment for all the experiments.

Sequence of S. maltophilia DHFR (B2FPG1 entry or part of it): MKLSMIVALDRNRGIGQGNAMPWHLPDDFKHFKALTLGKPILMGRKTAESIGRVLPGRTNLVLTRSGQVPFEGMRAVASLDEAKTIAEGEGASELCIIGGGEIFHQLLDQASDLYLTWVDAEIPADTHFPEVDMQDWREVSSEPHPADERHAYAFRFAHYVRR

## (−)-epigallocatechin gallate [EGCG]
[1]
  Type of inhibition observed: competitive (reversible)
[1]; competitive respect to DHF, read-out: inhibition constant (Ki)
  Ki: 4.04 µM
[1]; preincubation 30 min, 500-fold dilution
  effect of preincubation of the enzyme with inhibitor: did not showed any effect on enzymatic activity
[2]; L1210, EGCG 20 μM
  growth inhibition in HT medium containing ascorbic acid, NAC or SOD: completely removed the inhibitory effect
[2]; L1210, EGCG 20 μM, antioxidant ascorbic acid
  growth inhibition with ascorbic acid in the medium: partially lifted
[2]; L1210, LF medium (30 nM folic acid), EGCG 1 μM
  growth inhibition in HT medium, low folate: completely reversed
[2]; L1210, hypoxanthine-thymidine (HT) medium, EGCG 20 μM
  growth inhibition in HT medium: high level of inhibition reversal
[2]; RPMI 1640 medium with 10% FCS (standard folate)
  IC50: 20 µM
